Assay results: paper PMC8747035, “Design, Synthesis, and Biological Evaluation of 5,6,7,8-Tetrahydrobenzo[4,5]thieno[2,3-d]pyrimidines as Microtubule Targeting Agents” (Molecules, 2022)
Entries after “also recorded” stand apart in the source; their conditions may differ. Where two headings read alike, the source gives them in different places.

What was measured:
[1] = test system: MDA-MB-435 cells; assay: Antiproliferative SRB assay in MDA-MB-435 cells; format: cell-based, human; conditions: read-out: IC50 ± SD in MDA-435 Cells
Experimental: (§1) We investigated the microtubule depolymerization and the antiproliferative activities of compounds 4–14 (Table 2). […] We next evaluated the importance of the 4′-OMe group of compound 4 by replacing it with an isosteric 4′-SMe (5). […] Clearly, this further substantiated the importance of an S in the scaffold over an NH.
(§2) The antiproliferative and cytotoxic effects of the compounds in cancer cells were evaluated using the SRB assay as previously described. MDA-MB-435 cells were obtained from the Lombardi Cancer Center of Georgetown University (Washington, DC, USA). SK-OV-3 and HeLa cells were purchased from ATCC. Details about the generation of the SK-OV-3 MDR1-M6/6 and HeLa WTβIII cells were described previously. The IC50 values represent an average of three independent experiments, each conducted using triplicate points.
(§3) HeLa, A-10, SK-OV-3, and SK-OV-3 MDR1-M6/6 cells were grown in Basal Medium Eagle (Sigma-Aldrich, St. Louis, MO, USA) supplemented with 10% FBS (Hyclone, GE Life Sciences, Logan, UT, USA) 1% GlutaMAX (Gibco, Life Technologies, Waltham, MA, USA) and 50 µg/mL gentamycin (Life Technologies, USA). HeLa WTβIII cells were grown in Dulbecco’s Modified Eagle Medium (Life Technologies) supplemented with 10% FBS and 50 µg/mL gentamycin. MDA-MB-435 cells were maintained in Improved Minimum Essential Medium (Life Technologies) supplemented with 10% FBS and 25 µg/mL gentamycin. All cells were grown at 37 °C in a humidified environment with 5% CO2.

[2] = test system: A-10 cells; assay: Cellular microtubule depolymerization in A-10 cells (immunofluorescence); format: cell-based; conditions: for EC50: Rattus norvegicus, A10, 18 h, loss of 50% of interphase microtubules; for Microtubule depolymerization activity in A-10 cells: at a 10 µM concentration
Experimental: as §1
The effects of the compounds on cellular microtubules were evaluated in A-10 cells using indirect immunofluorescence microscopy. These cells were obtained from the American Type Culture Collection (ATCC) (Manassas, VA, USA). Cells were treated with the compounds of interest for 18 h, and the cells fixed with cold MeOH and microtubule structures were visualized using a β-tubulin antibody (Sigma-Aldrich, St. Louis, MO, USA). The concentration that caused loss of 50% of the interphase microtubules was defined as the EC50 and calculated as previously described. These values represent an average of at least three independent experiments.

[3] = test system: Bovine brain tubulin; assay: Inhibition of purified tubulin assembly (turbidity); format: biochemical; conditions: 10 µM tubulin, 30 °C; read-out: Inhibition of Tubulin Assembly IC50 ± SD
Experimental: (§4) Bovine brain tubulin was purified as described previously. The tubulin assembly assay has been described in detail. Briefly, 1.0 mg/mL of tubulin (10 µM) was preincubated for 15 min at 30 °C in 0.8 M monosodium glutamate (pH of 2 M stock solution adjusted to 6.6 with HCl), varying compound concentrations and 4% (v/v) DMSO as compound solvent. After the preincubation, the reaction mixtures were placed on ice and 0.4 mM GTP was added. The reaction mixtures were transferred to cuvettes at 0 °C in a recording spectrophotometer equipped with an electronic temperature controller. After baselines were established, the temperature was elevated over about 30 s to 30 °C, and changes in turbidity were monitored at 350 nm for 20 min. The compound concentration that caused a 50% reduction in increase in turbidity, interpolated from the values obtained with defined compound concentrations, was defined as the IC50 value. The assay to measure inhibition of [^3H]colchicine binding was described in detail previously. Briefly, 0.1 mg/mL (1.0 µM) tubulin was incubated at 37 °C with 5.0 µM [3H]colchicine and potential inhibitors at 5.0 µM. Incubation was for 10 min, at which point the reaction had reached 40–60% of the maximum colchicine that can be bound in reaction mixtures without inhibitor. The [^3H]colchicine was a product of PerkinElmer, USA. CA-4 was a generous gift of Dr. G. R. Pettit, Arizona State University.

[4] = test system: tubulin; assay: Inhibition of [3H]colchicine binding to tubulin; design: species or system Bovine; conditions: compound at 5 μM, 5.0 µM [3H]colchicine, 1.0 µM tubulin
Experimental: as §4, with “Incubation was for 10 min, at which point the reaction had reached 40–60% of the maximum colchicine that can be bound in reaction mixtures without inhibitor.” left out, “USA.” for “USA. CA-4 was a generous gift of Dr. G. R. Pettit, Arizona State University.”

[5] = test system: HeLa cells; assay: SRB assay in HeLa cells; format: cell-based; conditions: Homo sapiens, read-out: IC50 ± SD in HeLa
Experimental: (§5) Compounds 4–8, 10, 12, and 13 were evaluated for their abilities to overcome βIII-tubulin mediated drug resistance using an isogenic HeLa cell line pair (Table 4). […] The Rr values (Table 4) were calculated by dividing the IC50 of the βIII-tubulin expressing line by the IC50 obtained in the parental HeLa cells.
as §2, §3

[6] = test system: HeLa WTβIII cells; assay: SRB assay in βIII-tubulin expressing HeLa WTβIII cells; format: cell-based; conditions: Homo sapiens, read-out: IC50 ± SD in HeLa WTβ3
Experimental: as §5, §2, §3

[7] = test system: SK-OV-3 cells; assay: SRB assay in SK-OV-3 cells; format: cell-based; conditions: Homo sapiens, read-out: IC50 ± SD in SK-OV-3 Cells
Experimental: (§6) Comparison of the IC50 values in the parental SK-OV-3 and genetically manipulated SK-OV-3 MDR1-M6/6 cell line allows for the calculation of a relative resistance value, designated Rr. This value is calculated by dividing the IC50 value obtained in the Pgp-expressing SK-OV-3 MDR1-M6/6 cells by the IC50 obtained in the parental SK-OV-3 cells.
as §2, §3

[8] = test system: SK-OV-3 MDR1-M6/6 cells; assay: SRB assay in Pgp-expressing SK-OV-3 MDR1-M6/6 cells; format: cell-based; conditions: Homo sapiens, SKOV3-MDR1-M6/6, read-out: IC50 ± SD in SK-OV-3 MDR1-M6/6 Cells
Experimental: as §6, §2, §3

Row | SMILES | IC50 ([1]; Homo sapiens) [µM] | EC50 [2] [µM] | IC50 [3] [µM] | IC50 [1] [µM] | Inhibition of Colchicine Binding (% inhibition ± SD) [4] [%] | IC50 [5] [µM] | IC50 [6] [µM] | IC50 [7] [µM] | IC50 [8] [µM] | Microtubule depolymerization activity in A-10 cells [2]
1 | COc1ccc(/C=C\c2cc(OC)c(OC)c(OC)c2)cc1O [CA-4, combretastatin A-4] | 0.0034 ± 0.0006 | 0.013 | 1 ± 0.09 | – | – | – | – | – | – | –
2 | CSc1ccc(N(C)c2nc(N)nc3sc4c(c23)CCCC4)cc1 [Compound 5, N4-methyl-N4-(4-(methylthio)phenyl)-5,6,7,8-tetrahydrobenzo[4,5]thieno[2,3-d] pyrimidine-2,4-diamine] | < 0.04 | 0.07 | 0.49 ± 0.08 | 0.0386 ± 0.0056 | 94.0 ± 2.0 | 0.0643 ± 0.0043 | 0.0441 ± 0.0048 | 0.0718 ± 0.0053 | 0.0741 ± 0.011 | –
3 | COc1ccc2c(c1)CCCN2c1nc(N)nc2sc3c(c12)CCCC3 [Compound 6, 4-(6-Methoxy-3,4-dihydroquinolin-1(2H)-yl)-5,6,7,8-tetrahydrobenzo[4,5]thieno[2,3-d]-pyrimidin-2-amine] | 0.0596 ± 0.0118 | 0.121 | – | – | – | 0.123 ± 0.012 | 0.0803 ± 0.0064 | 0.0925 ± 0.0033 | 0.0917 ± 0.012 | –
4 | COc1ccc(N(C)c2ncnc3sc4c(c23)CCCC4)cc1 [Compound 7, N-(4-methoxyphenyl)-N-methyl-5,6,7,8-tetrahydrobenzo[4,5]thieno[2,3-d]pyrimidin-4-amine] | < 0.04 | 0.045 | 0.49 ± 0.06 | 0.0368 ± 0.0052 | 95.0 ± 0.40 | 0.0572 ± 0.0085 | 0.038 ± 0.0039 | 0.037 ± 0.0062 | 0.0471 ± 0.0076 | –
5 | COc1ccc(N(C)c2nc(C)nc3sc4c(c23)CCCC4)cc1 [Compound 8, N-(4-methoxyphenyl)-N,2-dimethyl-5,6,7,8-tetrahydrobenzo[4,5]thieno[2,3-d]pyrimidin-4-amine] | 0.053 ± 0.0003 | 0.052 | 0.56 ± 0.09 | – | 96.0 ± 0.40 | 0.0879 ± 0.0088 | 0.0813 ± 0.0052 | 0.0477 ± 0.0012 | 0.0575 ± 0.0005 | –
6 | COc1ccc(Nc2nc(C)nc3sc4c(c23)CCCC4)cc1 [Compound 9, N-(4-methoxyphenyl)-2-methyl-5,6,7,8-tetrahydrobenzo[4,5]thieno[2,3-d]pyrimidin-4-amine] | – | – | – | – | – | – | – | – | – | did not show any activity; also recorded: Not MT active ^c
7 | CSc1ccc(N(C)c2nc(C)nc3sc4c(c23)CCCC4)cc1 [Compound 10, N,2-dimethyl-N-(4-(methylthio)phenyl)-5,6,7,8-tetrahydrobenzo[4,5]thieno[2,3-d]pyrimidin-4-amine] | 0.0877 ± 0.0047 | 0.157 | 0.54 ± 0.08 | – | 89.0 ± 0.20 | 0.146 ± 0.014 | 0.108 ± 0.0086 | 0.136 ± 0.015 | 0.209 ± 0.04 | –
8 | CSc1ccc(Nc2nc(C)nc3sc4c(c23)CCCC4)cc1 [Compound 11, 2-Methyl-N-(4-(methylthio)phenyl)-5,6,7,8-tetrahydrobenzo[4,5]thieno[2,3-d]pyrimidin-4-amine] | – | – | – | – | – | – | – | – | – | did not show any activity; also recorded: Not MT active ^c
9 | COc1ccc2c(c1)CCCN2c1nc(C)nc2sc3c(c12)CCCC3 [Compound 12, 4-(6-Methoxy-3,4-dihydroquinolin-1(2H)-yl)-2-methyl-5,6,7,8-tetrahydrobenzo[4,5]thieno[2,3-d]pyrimidine] | 0.125 ± 0.014 | 0.15 | – | – | – | 0.191 ± 0.0081 | 0.203 ± 0.012 | 0.178 ± 0.0011 | 0.223 ± 0.0094 | –
10 | COc1cccc2cc(N(C)c3nc(C)nc4sc5c(c34)CCCC5)ccc12 [Compound 13, N-(5-methoxynaphthalen-2-yl)-N,2-dimethyl-5,6,7,8-tetrahydrobenzo[4,5]thieno[2,3-d]pyrimidin-4-amine] | 0.0813 ± 0.0084 | 0.118 | – | – | – | 0.17 ± 0.034 | 0.139 ± 0.02 | 0.142 ± 0.022 | 0.143 ± 0.244 | –
11 | Cc1nc(Nc2ccc3c(O)cccc3c2)c2c3c(sc2n1)CCCC3 [Compound 14, 6-((2-Methyl-5,6,7,8-tetrahydrobenzo[4,5]thieno [2,3-d]pyrimidin-4-yl)amino)naphthalen-1-ol] | – | – | – | – | – | – | – | – | – | did not show any activity; also recorded: Not MT active ^c
